For data set [1], the target named is T1, Staphylococcus aureus ODCase (Staphylococcus aureus, UniProt Q6GHN1).
T1 construct: made in house; host or cells: E. coli BL21(DE3), pET24a(+)
Kind of data set: ODCase enzyme inhibition assay. The format is biochemical. The settings on record: read-out: K1 against Staphylococcus aureus ODCase. From the text:
ODCase gene, pyrF, was obtained from the complete genomes of the respective bacteria through ATCC. The pyrF gene was amplified from the genome of S. aureus M252 using two synthetic primers: Dir 5′-[…] [SEQ ID NO: 1] and Rev 5′-[…] [SEQ ID NO: 2].
The pET expression system was used to express ODCase from pyrF. The cloning strategy can use any generic strategies, herein a double digestion of pET24a(+) expression vector and pyrF separately using EcoRI and HindIII restriction enzyme was used to produce digestion products with sticky ends. […] The digested vector was separated from the restriction enzyme by gel purification by QIAquick Gel Extraction Kit Protocol using microcentrifuge and quantified on 1% agarose gel with 2-log ladder as standard. In addition to quantifying DNA, 1% agarose gel was run with undigested vector to confirm that the vector was digested.
pyrF from the PCR mixture was also double digested in 50 uL solution using the same conditions described above. The separation of the pyrF from restriction enzymes was carried out by QIAquick Gel Extraction Kit Protocol using Microcentrifuge, and the collected gene was quantified on 1% agarose gel. […]

In data set [2] the test system is human primary blood cells.

Molecules are shown by their SMILES. pKi: −log10 of the molar value.

T1 sequence (Q6GHN1 whole entry): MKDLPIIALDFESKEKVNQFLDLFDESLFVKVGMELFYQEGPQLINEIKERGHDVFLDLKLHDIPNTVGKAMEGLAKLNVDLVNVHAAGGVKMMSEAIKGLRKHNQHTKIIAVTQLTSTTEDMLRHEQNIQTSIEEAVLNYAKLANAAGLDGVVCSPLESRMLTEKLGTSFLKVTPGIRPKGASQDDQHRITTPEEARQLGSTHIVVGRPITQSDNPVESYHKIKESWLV

Turning to `O=c1cc(I)n([C@@H]2O[C@H](COP(=O)(O)O)[C@@H](O)[C@H]2O)c(=O)[nH]1` [Ib, 6-Iodo uridine-5′-O-monophosphate], in data set [1], the pKi is greater than 7.30.

Regarding `O=c1cc(I)n([C@@H]2O[C@H](CO)[C@@H](O)[C@H]2O)c(=O)[nH]1` [Ia, 6-Iodo-uridine], in data set [2], the “Effect on human primary blood cells (indications of toxicity)” value is given as “did not inhibit primary cells significantly”.

The values above are taken from patent publication US20100087388A1, “ODCASE INHIBITORS AS ANTI-VIRALS AND ANTIBIOTICS” (priority 2005, published 2010).
